Read-outs that look alike come from different tables or passages of the source.
Experiments:
[1] = tested on: apomorphine-induced emesis; assay: apomorphine test in dogs (APO-dog); assay type: in vivo, beagle dog; details: Canis lupus familiaris, sc, read-out: ED50 (APO)--dog
Excerpt: (§1) The activity of the subject compounds as […] is evidenced by the experimental data obtained in at least one of two different test procedures, viz., the combined apomorphine-, tryptamine- and norepinephrine tests in rats and the apomorphine test in dogs.
The apomorphine test in dogs (APO-dog).
The method used is described by P. A. J. Janssen and C. J. E. Niemegeers in Arzneim.-Forsch. (Drug Res.), 9, 765-767 (1959). […]
The table 1 gives the ED50 -values of a number of the compounds under consideration. As used herein, the ED50 value represents the dose which protects 50% of the animals from emesis.

[2] = tested on: norepinephrine-induced mortality; assay: combined test in rats: norepinephrine (NOR); assay type: in vivo, rat (adult male Wistar rats); details: Rattus norvegicus, sc, 2 h; norepinephrine 1.25 mg/kg i.v. at 120 minutes; dose protecting 50% of animals
Protocol: as §1
(§2) The combined apomorphine (APO)-, tryptamine (TRY)- and norepinephrine (NOR) test in rats.
(§3) The experimental animals used in this test were adult male Wistar rats (weight 240±10 g). After an overnight fast, the animals were treated subcutaneously (1 ml/100 g) with an aqueous solution of the compound under investigation (time=zero) and put in isolated observation cages. Thirty minutes thereafter (time=30 minutes) 1.25 mg/kg of apomorphine hydrochloride (APO) was injected intravenously and the rats were observed over a 1 hour period for the presence or absence of the following apomorphine-induced phenomena; agitation and stereotypic chewing. At the end of this 1 hour period (time=90 minutes) the same animals were injected intravenously with 40 mg/kg of tryptamine (TRY) and the presence of the typical tryptamine-induced bilateral tonic seizures was noted. Two hours after pretreatment (time=120 minutes) finally, the same animals were challenged with 1.25 mg/kg intravenously of norephinephrine (NOR) and possible mortality was looked for up to 60 minutes later.
(§4) The table 1 gives the ED50 -value of a number of the compounds under consideration. As used herein, the ED50 -value represents the dose which protects 50% of the animals from apomorphine-, tryptamine- or norepinephrine-induced phenomena.

[3] = tested on: apomorphine-induced agitation and stereotypic chewing; assay: combined test in rats: apomorphine (APO); assay type: in vivo, rat (adult male Wistar rats); details: Rattus norvegicus, sc, 0.5 h, read-out: ED50 (APO)--rat
Protocol: as §1, §2, §3, §4

[4] = tested on: tryptamine-induced bilateral tonic seizures; assay: combined test in rats: tryptamine (TRY); assay type: in vivo, rat (adult male Wistar rats); details: Rattus norvegicus, sc, 1.5 h, read-out: ED50 (TRY)--rat
Protocol: as §1, §2, §3, §4

[5] = duration 1 h, apomorphine 0.31 mg/kg s.c., dose protecting 50% from emesis
[6] = duration 4 h, apomorphine 0.31 mg/kg s.c., dose protecting 50% from emesis
[7] = s.c., apomorphine 1.25 mg/kg i.v. 30 minutes after treatment, dose protecting 50% of animals
[8] = s.c., tryptamine 40 mg/kg i.v. at 90 minutes, dose protecting 50% of animals

SMILES	ED50 ([1]; 1 h)	ED50 ([1]; 2 h)	ED50 ([1]; 4 h)	ED50 ([1]; 8 h)	ED50 ([1]; 16 h)	ED50 [2]	ED50 [3]	ED50 [4]	ED50 [1, 5]	ED50 [1, 6]	ED50 ([1]; duration 16 h, apomorphine 0.31 mg/kg s.c., dose protecting 50% from emesis)	ED50 [3, 7]	ED50 [4, 8]
Cc1nc2n(c(=O)c1CCN1CCC(c3noc4cc(F)ccc34)CC1)CCCC2 [Compound 1, 3-[2-[4-(6-fluoro-1,2-benzisoxazol-3-yl)-1-piperidinyl]ethyl]-6,7,8,9-tetrahydro-2-methyl-4H-pyrido[1,2-a]pyrimidin-4-one]	0.008 mg/kg	0.005 mg/kg	0.015 mg/kg	0.018 mg/kg	0.02 mg/kg	0.16 mg/kg	0.08 mg/kg	0.08 mg/kg					
Cc1nc2sccn2c(=O)c1CCN1CCC(c2noc3cc(F)ccc23)CC1 [Compound 2, 6-[2-[4-(6-fluoro-1,2-benzisoxazol-3-yl)-1-piperidinyl]ethyl]-7-methyl-5H-thiazolo[3,2-a]pyrimidin-5-one]						0.31 mg/kg			0.004 mg/kg	0.008 mg/kg	0.16 mg/kg	0.02 mg/kg	0.005 mg/kg
Cc1nc2ccccn2c(=O)c1CCN1CCC(c2noc3cc(F)ccc23)CC1 [Compound 11, 3-[2-[4-(6-fluoro-1,2-benzisoxazol-3-yl)-1-piperidinyl]ethyl]-2-methyl-4H-pyrido[1,2-a]pyrimidin-4-one]						0.16 mg/kg			0.015 mg/kg	0.03 mg/kg		0.02 mg/kg	0.01 mg/kg
Cc1nc2scc(C)n2c(=O)c1CCN1CCC(c2noc3cc(F)ccc23)CC1 [Compound 13, 6-[2-[4-(6-fluoro-1,2-benzisoxazol-3-yl)-1-piperidinyl]ethyl]-3,7-dimethyl-5H-thiazolo[3,2-a]pyrimidin-5-one]						0.08 mg/kg			0.015 mg/kg	0.06 mg/kg		0.02 mg/kg	0.02 mg/kg
Cc1nc2n(c(=O)c1CCN1CCC(c3noc4cc(F)ccc34)CC1)CCS2 [Compound 14, 6-[2-[4-(6-fluoro-1,2-benzisoxazol-3-yl)-1-piperidinyl]ethyl]-2,3-dihydro-7-methyl-5H-thiazolo[3,2-a]pyrimidin-5-one]						0.31 mg/kg			0.004 mg/kg	0.004 mg/kg		0.02 mg/kg	0.005 mg/kg
Cc1nc2n(c(=O)c1CCN1CCC(c3noc4cc(F)ccc34)CC1)CCCS2 [Compound 15, 7-[2-[4-(6-fluoro-1,2-benzisoxazol-3-yl)-1-piperidinyl]ethyl]-3,4-dihydro-8-methyl-2H,6H-pyrimido[2,1-b][1,3]thiazin-6-one]						0.31 mg/kg			0.015 mg/kg	0.06 mg/kg		0.08 mg/kg	0.01 mg/kg
